From patent publication US20060183773A1, “Uses of methylphenidate derivatives” (priority 2005, published 2006) come the findings set out here.

Assay type in all cases: cell-based, human
The subject of data set [1] is 14-3-3. The data set is described as follows: Custom AntibodyArray, TRiPS cells: 14-3-3. The conditions noted are these: 15 μg/ml, 30 minutes. Here is the method:
(§1) Day 18 TRiPS cells, 1×10^6, were incubated for 30 minutes at 37° C., either with nothing added (“Nil”), with 1 μl CD3/CD28 Dynabeads (Dynal, Oslo, Norway) (“CD3/CD28 beads”) per 100,000 cells, or with CD3/CD28 beads and 15 μg/ml of the compound of formula II (Cpd II). After the incubation, the cells were lysed in Cell-Lytic Mammalian Cell Extraction Reagent (Sigma). After centrifugation to pellet cellular debris, the supernatants (cell extracts) were obtained.
(§2) The cell extracts (supernatants) were then analyzed using a Custom AntibodyArray™ manufactured by Hypromatrix Inc., Worcester, Mass., following the manufacturer's instructions. The Custom AntibodyArray™ is a nylon membrane blotted with antibodies to the proteins listed below. Briefly, the cell extracts were incubated with duplicate Custom AntibodyArray™'s for 2 hours at room temperature with slow shaking, followed by three washes with Tris buffer (150 mM NaCl, 25 mM Tris, 0.05% Tween-20, pH 7.5). HRP-labeled antibodies specific for phosphorylated-tyrosine, phosphorylated-serine and phosphorylated-threonine in Tris buffer were added, and the arrays incubated for 2 hours. After three more washes with Tris buffer, a peroxidase-reactive luminescent substrate was added. The arrays were visualized by exposure to X-ray film. Densitometry of the X-ray films was measured by scanning and computer analysis.

Data set [2] relates to IL-4. Nature of the data set: Custom AntibodyArray, TRiPS cells: IL-4. The conditions noted are these: 15 μg/ml, 30 minutes. Here is the method: as §1, §2
The subject of data set [3] is TCR-positive cells. The data set is described as follows: Annexin staining of TCR-positive PBL, flow cytometry (cell death). Here is the method:
After this incubation, PHA was added to give a final concentration of 5 μg/ml, and the cells were incubated for an additional 72 hours at 37° C., 5% CO2. All cultures were performed in triplicate. Cells were then removed by centrifugation at 1000 rpm for 10 minutes.
The cells were further analyzed by flow cytometry. Annexin was used to determine populations of dead or dying cells. Anti-CD69 antibody was used to establish the level of cellular activation. Antibody to T-cell receptor αβ (TCR) was also used. Recombinant Annexin 5 (PE and FITC conjugates) and the antibodies were all purchase from Caltag (Burlingham, Calif.) and used following the manufacturer's recommendations.
(In general: In flow cytometry, cells or beads pass a laser one at a time.)

For data set [4], the system named is JAK2. Nature of the data set: Custom AntibodyArray, TRiPS cells: JAK2. The following applies: 15 μg/ml, 30 minutes. Here is the method:
as §1, §2

The subject of data set [5] is peripheral blood lymphocytes (PBL). The data set is described as follows: PBL proliferation, Promega cell titer assay. The conditions noted are these: for proliferation of PBL (OD at 530 nm): Dex 10 μM; for proliferation of PBL stimulated with PHA (OD at 530 nm): donor GR283. Here is the method: Whole blood was drawn from GR283, a human volunteer with known allergies, into a glass vacutainer tube containing no anticoagulant. This blood was allowed to clot, and the serum was removed by centrifugation and then heat inactivated by placing it in a water bath at 56° C. for 30 minutes. Whole blood from GR283 was also drawn into a glass vacutainer tube containing heparin and used for peripheral blood lymphocytes (PBL) isolation as follows. Whole blood was layered over room temperature Histopaque 1077 solution and centrifuged at 2000 rpm for 15 minutes at room temperature. Cells at the plasma-Histopaque interface were then removed and washed with culture medium (IMDM medium with 10% heat-inactivated GR283 serum plus 1% penicillin/streptomycin) at 37° C.
Then, GR283's PBL in culture medium were added to the wells to give a final concentration of 150,000 cells per well, and the plates were incubated at 37° C., 5% CO2 for 24 hours. After this incubation, phytohemagglutinin (PHA) in culture medium was added to give final concentrations of 2 μg/ml, 5 μg/ml or 20 μg/ml, final total volume of 200 μl/well, and the cells were incubated for an additional 72 hours at 37° C., 5% CO2. All cultures were performed in triplicate.
Cell proliferation was assayed by adding 20 μl of Promega cell titer solution to each well and incubating the plate for an additional 4 hours. Promega cell titer solution is a solution containing a tetrazolium dye that is reduced by living cells to a formazan dye, and this reduction is proportional to the number of living cells present in the well. After the 4-hour incubation, the optical density (OD) at 530 nm of each well was measured. The OD at 530 nm for blank wells containing no cells was subtracted from the OD of the experimental wells.
Then, GR467's PBL in culture medium were added to the wells to give a final concentration of 150,000 cells per well, and the plates were incubated at 37° C., 5% CO2 for 24 hours. After this incubation, PHA was added to give a final concentration of 2 μg/ml, final total volume of 200 μl/well, and the cells were incubated for an additional 72 hours at 37° C., 5% CO2. All cultures were performed in triplicate.
Then, GR191's PBL in culture medium were added to the wells to give a final concentration of 150,000 cells per well, and the plates were incubated at 37° C., 5% CO2 for 24 hours. After this incubation, PHA was added to give final concentrations of 2 μg/ml and 5 μg/ml, final total volume of 200 μl/well, and the cells were incubated for an additional 72 hours at 37° C., 5% CO2. All cultures were performed in triplicate.

Data set [6] relates to RAP1. The data set is described as follows: Custom AntibodyArray, TRiPS cells: RAP1. The conditions noted are these: 15 μg/ml, 30 minutes. Here is the method:
as §1, §2

In data set [7] the test system is c-Jun. Nature of the data set: c-Jun in VEGF-treated HUVECs, TransAM AP-1 assay. The following applies: for Mean OD 450 nm (c-Jun): control 0.204, VEGF only 0.261. Here is the method:
The flasks were incubated overnight at 37° C., 5% CO2 After this incubation, vascular endothelial growth factor (VEGF) (obtained from Sigma) was added to give a final concentration 10 ng/ml, and the flasks were incubated for an additional 30 minutes.
The amount of c-Jun was determined using a TransAM™ AP-1 Family Transcription Factor Assay Kit and a Nuclear Extract Kit from Active Motif North America, Carlsbad, Calif., according to manufacturer's instructions. Briefly, a nuclear extract of the cells was prepared using the Nuclear Extract Kit. Then, the nuclear extract was added to the wells of a 96-well plate in which oligonucleotide containing a TPA-responsive element (TRE) was immobilized. Activator protein-1 (AP-1) dimers contained in the nuclear extract were bound to this oligonucleotide and were detected using an antibody specific for c-Jun. A secondary antibody conjugated to horseradish peroxidase (HRP) was next added to provide a colorimetric readout that was quantified by spectrophotometry (measurement at 450 nm).

Each structure is given as a SMILES string.

Turning to `COC(=O)C(c1ccc(-c2ccccc2)cc1)C1CCCCN1` (stereo not drawn) [Cpd II], the “Effect of Cpd II on the protein in CD3/CD28 stimulated TRiPS cells” value in data set [1] was “Slightly decreased the level”; in data set [2], “Decreased level back to basal levels (Nil control)”; in data set [4] it was “Activated”; in data set [6], “Activated”. For the same compound, the “Annexin staining of TCR-positive cells” value turned out to be 23% in data set [3] (15 μg/ml, no PHA, background 7.3%); 45% in data set [3] (50 μg/ml, no PHA, background 7.3%); 62% in data set [3] (PHA 5 μg/ml plus 15 μg/ml, PHA alone 67%); 87% in data set [3] (PHA 5 μg/ml plus 50 μg/ml, PHA alone 67%). For the same compound, the “proliferation of PBL (OD at 530 nm)” value was “significantly inhibited the proliferation of PBL, both unstimulated and stimulated with PHA” in data set [5] (donor GR191, unstimulated and PHA 2, 5 μg/ml, Cpd II 5, 15, 25, 50 μg/ml, MP 50 μg/ml, FIGS. 5A-B); “significantly inhibited the proliferation of PBL, both unstimulated and stimulated with PHA” in data set [5] (donor GR467, unstimulated and 2 μg/ml PHA, Cpd II 5, 15, 25 μg/ml, MP 15 μg/ml, FIG. 2). Besides, in data set [5] (PHA 2, 5, 20 μg/ml, Cpd II 5, 15, 50 μg/ml, Dex 10 μg/ml, FIGS. 1A-C), the “proliferation of PBL stimulated with PHA (OD at 530 nm)” value is listed as “significantly inhibited the proliferation of PBL stimulated with PHA in a dose-dependent manner”. Also, the “Mean OD 450 nm (c-Jun)” value in data set [7] (VEGF 10 ng/ml + 1 μg/ml) is 0.221 ± 0.008; in data set [7] (VEGF 10 ng/ml + 5 μg/ml), 0.185 ± 0.025; in data set [7] (VEGF 10 ng/ml + 15 μg/ml) it was 0.204 ± 0.010. Besides, the “amount of c-Jun (in words)” value in data set [7] (VEGF, 15 μg/ml and 5 μg/ml) is on record as “completely eliminated the increase in the amount of c-Jun”.

In the case of `COC(=O)C(c1ccccc1)C1CCCCN1` (stereo not drawn) [methylphenidate], the “proliferation of PBL stimulated with PHA (OD at 530 nm)” value in data set [5] (methylphenidate at the other dose / PHA combinations) was “did not significantly reduce the proliferation of the PHA-stimulated PBL”; in data set [5] (methylphenidate highest dose (50 μg/ml), lowest PHA dose (2 μg/ml)), “showed a significant effect at its highest dose and the lowest PHA dose”. In data set [7] (VEGF 10 ng/ml + 15 μg/ml), the “Mean OD 450 nm (c-Jun)” value came out at 0.230 ± 0.016.
